For 29 compounds, TGI and GI50 results are on record in PubChem BioAssay (NCI).

Common to all, as to assay: inhibition of tumour cell growth, NCI panel, 48 h
For assay [1], the system named is SR leukemia.
Assay [2] deals with T-47D breast.
The test system of assay [3] is ACHN renal.
In assay [4] the test system is CAKI-1 renal.
The subject of assay [5] is UACC-257 melanoma.
The test system of assay [6] is NCI-H226 lung.
The subject of assay [7] is HCT-15 colon.
The test system of assay [8] is IGROV1 ovarian.
In assay [9] the test system is SNB-75 CNS.
Assay [10] deals with MCF7 breast.

Molecules are shown by their SMILES. Where “and” joins values, the source holds several entries; their conditions need not be identical. Identical values can stand only once.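 Growth conditions: 96-well plates. Treatment: test compound, 48 hours, 5 concentrations. Analysis: linear interpolation between bracketing concentrations; unreached endpoints set to highest concentration. Abbreviation: GI50, concentration required for 50% inhibition of growth. At the TGI there is no net growth.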

With `CCOP(=O)(OCC)OC1c2[nH]cc(C(=O)OCc3ccccc3)c2-c2cc(C(=O)OC)[nH]c2C1OC` (stereo unspecified), the TGI is greater than 100 µM in [1]; 24 µM in assay [2]; 30.5 µM in assay [3]; greater than 100 µM in assay [4]; greater than 35 µM in assay [5]; 58.3 µM in assay [6]. For the same compound, the TGI in assay [7] is greater than 100 µM; in assay [8], 31.6 µM; in assay [9] it was 56.2 µM; in assay [10], greater than 100 µM.

For the compound `COC1=C(C)C(=O)c2c(cc3c(c2O)C(C)(CCC=C(C)C)C(C)O3)C1=O` (stereo unspecified), the TGI is greater than 100 µM in assay [1]; greater than 100 µM in [3]; greater than 100 µM in assay [4]; greater than 100 µM in [5]; 37.5 µM in assay [6]; greater than 57.2 µM in [7]. The figures for the TGI in assay [8] and in assay [9] were greater than 100 µM and 37.1 µM, respectively.

With `COc1cc(C2c3cc4c(cc3[C@@H](NCCN3CCOCC3)C3COC(=O)[C@H]23)OCO4)cc(OC)c1O` (stereo partly specified), the GI50 in assay [1] is 0.0227 µM and 0.0625 µM; in assay [3], 0.264 µM and 0.679 µM; in assay [6], 0.155 µM and 0.385 µM. Further, the TGI in assay [1] was 11.1 µM and 1.3 µM; in [3] it was 1.34 µM and 2.84 µM; in assay [4], greater than 75 µM; in assay [5] it was 32.9 µM and > 17.5 µM; in assay [6], 1.29 µM and 1.64 µM; in assay [7], 15.7 µM and 14.2 µM. Moreover, the TGI in assay [8] is 22.4 µM and > 17.5 µM; in [9], 1.8 µM and 11.6 µM.

Regarding `Cc1cc(S(=O)(=O)/N=C(\[N-]S(=O)(=O)c2cc(Cl)sc2Cl)[n+]2ccc(N(C)C)cc2)c(S)cc1Cl`, the TGI in assay [1] is 98.2 µM; in assay [2], greater than 100 µM; in [3], greater than 100 µM; in assay [4] it was greater than 100 µM; in assay [5] it was greater than 100 µM; in [6] it was greater than 100 µM. For the same compound, the TGI in [7], in assay [8] and in [10] was greater than 100 µM throughout.

On to `CCCCCCCCC/C=C1\CCC(CN(C)C)C1=O` (stereo unspecified), for which the TGI in [1] came out at 6.77 µM; in [3], 4.98 µM; in assay [4], 4.99 µM; in [5], 3.52 µM; in [6], 23.9 µM; in [7], 4.66 µM. The TGI in [8] is 6.53 µM; in assay [9], 6.28 µM.

On to `CCCCCCCCCCCCCCCCCCOCC(O)COP(=O)(O)OCC1OC(n2ccc(N)nc2=O)C(O)C1O` (stereo unspecified), for which the TGI was 40.4 µM in assay [1]; greater than 100 µM in [2]; greater than 100 µM in assay [3]; 75 µM in assay [4]; greater than 100 µM in assay [5]; greater than 100 µM in [6]. The TGI in assay [7] was 47.9 µM; in [8], 28.5 µM; in assay [9] it was 28.7 µM; in assay [10] it was greater than 100 µM.

As for `O=C(OCCNC(=O)N1CC1)OCCNC(=O)N1CC1`, the TGI in assay [1], in assay [2], in [3], in [4], in assay [5] and in assay [6] was greater than 10 µM in each case. In addition, the TGI in assay [7], in assay [8], in assay [9] and in [10] was greater than 10 µM in each case.

Take `CNC1(C(=O)O)CC1`: the TGI in assay [1], in assay [2], in assay [3], in assay [5], in [6] and in assay [7] was greater than 100 µM throughout. The TGI in [8] and in [10] was greater than 100 µM each time.

Consider `COc1ccccc1C1c2cc3c(cc2OC(N2CCOCC2)C1C)OCO3` (stereo unspecified), for which the TGI is 52.9 µM in assay [1]; 78.3 µM in assay [2]; greater than 100 µM in assay [3]; 36.9 µM in assay [5]; 41.5 µM in assay [7]; 81.7 µM in assay [8]. This compound displayed a TGI in assay [10] of 81.5 µM.

On to `COc1cc2c(c(OC)c1OC)-c1ccc(SC)cc1C(O)CC2` (stereo unspecified), for which the TGI is 34.7 µg/mL in assay [1]; greater than 100 µM in assay [2]; > 100 µM and 97.9 µg/mL in [3]; 15.7 µM in [4]; 32.8 µg/mL in assay [5]; greater than 100 µM in [8]. Further, the TGI in [9] was 34.7 µM; in assay [10], > 100 µM and 36.1 µg/mL. In addition, in [9], the GI50 was 43.5 µg/mL.

Regarding `Cc1[nH]c(=O)nc(NNCc2ccc(Cl)cc2)c1C(=O)Nc1ccc(Cl)cc1`, the TGI in [1], in assay [2], in assay [4], in assay [5], in [6] and in assay [7] was greater than 100 µM in each case. Further, the TGI in assay [8], in assay [9] and in assay [10] was greater than 100 µM in each case.

Take `CSc1nc2c(c(=O)[nH]1)N=C(c1ccccc1)CC(c1ccccc1)N2` (stereo unspecified): the TGI was greater than 100 µM in assay [1]; 75.3 µM in [3]; greater than 100 µM in [4]; greater than 100 µM in assay [5]; greater than 100 µM in [6]; greater than 100 µM in [8]. Besides, the TGI in assay [9] is 44.6 µM; in [10] it was 36 µM.

As for `COc1cccc(/C=C2\S/C(=N/Nc3nc(-c4ccc([N+](=O)[O-])cc4)cs3)NC2=O)c1O`, the TGI was 74.9 µM in assay [1]; 27.5 µM in assay [2]; 32.3 µM in [3]; 71.1 µM in [4]; 71.2 µM in [5]; 47.3 µM in assay [6]. The TGI in [7] came out at 33.9 µM; in assay [8], 27.1 µM; in assay [10] it was 38.2 µM.

`CCOC(=O)c1nnc2c(C#N)c(-c3ccccc3)c(C)n2c1N`: the TGI in assay [1] is greater than 100 µM; in [2], greater than 100 µM; in assay [3], greater than 100 µM; in assay [4] it was greater than 100 µM; in assay [5], 92.7 µM; in [7], greater than 100 µM. Moreover, the values for the TGI in assay [8] and in [10] were 66.6 µM and greater than 100 µM, respectively.

In the case of `COc1ccc2nc3cccc([N+](=O)[O-])c3c(NCCCO)c2c1`, the GI50 in [1] was 0.0288 µM; in assay [2], 0.0292 µM and 0.136 µM; in assay [5], 0.00379 µM; in assay [6], 0.0181 µM and 0.0138 µM; in assay [9], 0.0151 µM and 0.0535 µM. Besides, the TGI in assay [4] is 0.0248 µM; in assay [5], 0.0166 µM; in assay [6], 0.0803 µM and 0.0618 µM; in assay [8], 0.0313 µM and 0.29 µM; in [9], 0.0482 µM and 0.263 µM; in [10], 0.0134 µM and 0.0389 µM.

For `CC1=C(C)SC(=C2Sc3nc(O)[nH]c(=O)c3S2)S1`, the TGI in [1] is 79.9 µM; in assay [3], greater than 100 µM; in [4], greater than 100 µM; in [5] it was greater than 100 µM; in [6], greater than 100 µM; in [7] it was greater than 100 µM. Moreover, the TGI in [8], in assay [9] and in [10] was greater than 100 µM in each case.

Consider `Cc1ccc(C(=O)N/N=C(\N=Nc2ccc(C(=O)O)cc2)c2ccc(N(CCC#N)CCC#N)cc2C)cc1`, for which the TGI in assay [1], in [2], in [3], in [4], in assay [5] and in assay [6] was greater than 100 µM in each case. For the same compound, the TGI in assay [7], in [9] and in [10] was greater than 100 µM throughout.

Turning to `CCOC1CC(C)N(C(=O)c2ccccc2)O1` (stereo unspecified), the TGI in assay [1], in assay [2], in [3], in assay [6], in assay [8] and in assay [10] was greater than 100 µM throughout.

For `c1ccc2c(c1)OC(N1CCCC1)c1cnc(N3CCOCC3)nc1-2` (stereo unspecified), the TGI in assay [1] is greater than 100 µM; in [2] it was 45.2 µM; in [3], greater than 100 µM; in assay [4], greater than 100 µM; in assay [5] it was 74.2 µM; in assay [6] it was greater than 100 µM. Besides, the TGI in assay [7] was greater than 100 µM; in assay [9], 54.4 µM; in assay [10], 38.2 µM.

In the case of `CCOC(=O)/C=C(/C)Nc1nc2c(c(C(=O)OC)c1C#N)CCCC2`, the TGI in assay [1], in assay [2], in assay [3], in assay [4], in assay [5] and in assay [6] was greater than 100 µM throughout. The TGI in [7], in assay [8] and in assay [10] was greater than 100 µM each time.

With `N#Cc1c(O)c(/C=N/c2ncccn2)c(=O)n2c1[nH]c1ccccc12`, the TGI in assay [1], in assay [2], in assay [4], in assay [5], in [6] and in [7] was greater than 100 µM in each case. In addition, the TGI in [8], in assay [9] and in assay [10] was greater than 100 µM throughout.

For `O=c1oc2c(Cl)cc(Cl)cc2cc1C1=CSC2=NCCN12`, the TGI in assay [1], in [2], in assay [3], in [4], in [5] and in [7] was greater than 100 µM throughout. The TGI was greater than 100 µM in [8], greater than 100 µM in [9] and 88.9 µM in assay [10].

As to `CC(=O)Oc1ccc2c3c1O[C@H]1[C@H](O)CC[C@@]4(O)[C@@H](C2)N(C)CC[C@]314`, the TGI in assay [1], in [2], in assay [3], in [4], in assay [5] and in assay [6] was greater than 100 µM in each case. Further, the TGI in assay [7], in assay [8] and in assay [10] was greater than 100 µM each time.

With `Cc1ccc2c(/C=C/c3ccc(N(C)C)cc3)ccc(C(C)C)cc1-2`, the TGI in assay [1], in [2], in assay [3], in [4], in [5] and in assay [6] was greater than 100 µM in each case. For the same compound, the TGI in [8], in assay [9] and in [10] was greater than 100 µM each time.

`CCOC(=O)c1cccc(NC(=O)CI)c1`: the TGI in assay [1] turned out to be 0.0918 µM; in assay [3], 1.99 µM; in [4], 1.07 µM; in assay [5] it was 2.95 µM; in assay [8], 1.02 µM; in [9] it was 2.87 µM. For the same compound, in assay [10], the TGI came out at 1.33 µM.

As for `COC(=O)C12OC3CO[Si](C(C)C)(C(C)C)O[Si](C(C)C)(C(C)C)OC3C1Oc1nc(=O)ccn12` (stereo unspecified), the TGI in assay [1] came to 32 µM; in assay [2] it was 33 µM; in [3] it was 32.2 µM; in assay [4] it was 31.7 µM; in [5], 29.1 µM; in assay [6], 30.4 µM. Moreover, the TGI was determined as 30.1 µM in assay [7], 24 µM in assay [8] and 29.4 µM in assay [10].

With `CCOc1cc2c(c(OCC)c1O)CC[C@@H]1[C@@H]2CC[C@]2(C)[C@@H](O)CC[C@@H]12`, the TGI in [1] was 28 µM; in assay [2], 54.3 µM; in [3], 57.4 µM; in assay [4], 32.1 µM; in assay [6] it was greater than 100 µM; in assay [7], 14 µM. Further, the TGI was greater than 100 µM in assay [8], 10.6 µM in [9] and 53.2 µM in [10].

Consider `CCOC(=O)NN(C(=O)OCC)c1c(C)cc(C)cc1C`, for which the TGI in assay [1], in assay [2], in assay [4], in assay [5], in assay [6] and in [7] was greater than 100 µM throughout. Further, the TGI in assay [8], in [9] and in [10] was greater than 100 µM in each case.

For `C#CC1(O)CCCCCCCCC2(CCCCCCCC1)OCCO2`, the TGI in [1] was determined as 34.3 µM; in [2], 33.8 µM; in [3], 27.3 µM; in [4] it was 24.7 µM; in assay [5], 39.2 µM; in assay [6], 34 µM. Besides, the TGI in assay [7] was determined as 39.1 µM; in assay [8], 30.3 µM; in [10], 36.3 µM.
